{"source": "patent EP0466030B1", "about": "“N-acyl dipeptides and their use” (DEGUSSA AG, priority 1990, dated 1992)", "key": {"[1]": {"details": "Ratten; Z. Ernährungswiss. 28 (1989), 32 - 35; cited from earlier work"}, "[2]": {"system": "L1210 Mäuse-Leukaemiezellen", "assay": "Comparative cell growth experiment with supplemented culture medium", "assay_type": "cell-based", "details": "for Zellwachstum: comparison among the three supplements L-Glutamin, L-Alanyl-L-glutamin, N-Acetyl-L-alanyl-L-glutamin; for Wachstum im Vergleich zum glutaminfreien Medium: supplemented medium versus glutamine-free medium", "text": "Weiterhin wurde überraschend festgestellt, daß N-Acyldipeptide als Quelle für die C-terminalen Aminosäuren in Nährmedien für Zellkulturen dienen können."}, "[3]": {"assay": "Cleavage of the substrate by pig kidney homogenate (decrease of substrate followed by HPLC)", "assay_type": "in vitro ADME, Schwein", "details": "for spezifische Aktivität des Nierenhomogenisats: 1 ml supernatant + 1 ml 0,1 M Tris/HCl (pH 7) + 1 ml 30 mM substrate solution, 37°C, HPLC; for schneller als N-Acetyl-L-tyrosin gespalten: in vitro, Schweinenierenhomogenisat, rate relative to N-Acetyl-L-tyrosin", "procedure": "0,1 Mol L-Alanyl-L-tyrosin wurden in 50 ml 2N Natronlauge gelöst. Bei 0°C wurden 0,11 Mol Acetanhydrid in 18 ml Tetrahydrofuran und 27,5 ml 4N Natronlauge so zugetropft, daß der pH-Wert des Reaktionsgemisches stets bei etwa 11 lag. Nach Beendigung der Zugabe wurde 1 Stunde lang nachgerührt, dann mit konzentrierter Salzsäure auf pH 1 angesäuert und das Volumen der Lösung auf die Hälfte eingeengt. Das N-Acetyl-L-alanyl-L-tyrosin kristallisierte aus, wurde abfiltriert, mit Wasser gewaschen und getrocknet. […] 1 ml des nach 30-minütiger Zentrifugation bei 10000 U/min erhaltenen Überstandes wurden mit 1 ml 0,1 M Tris/HCl (pH 7)-Puffer und 1 ml einer 30 mM Lösung des Substrates in 0,1 M Tris/HCl (pH7)-Puffer versetzt und bei 37°C inkubiert. Die zeitliche Abnahme der Substratkonzentration wurde durch HPLC verfolgt."}, "[4]": {"system": "L1210 Mäuse-Leukaemiezellen", "details": "general statement on cells, no source or experiment given; cited from earlier work"}}, "note": "Where a SMILES comes first, the peptide text is derived from it. Bridges are numbered along the chain shown (N, C = ends). Roman numbers before positions name the chains, in order. The star is where a group is joined. Butyryl = CCCC(=O)*"}
{"smiles": "CC(=O)NCC(=O)N[C@@H](CSSC[C@H](NC(=O)CNC(C)=O)C(=O)O)C(=O)O", "note": "[Bis-(acetylglycyl)-L,L-cystin] (I: Ac-Gly-Cys-OH / II: Ac-Gly-Cys-OH; disulfide I:2-II:2)", "values": [{"measurement": "Eignung als Cysteinquelle bei der parenteralen Ernährung", "setting": "[1]", "result": "nicht als Cysteinquelle geeignet"}]}
{"smiles": "C[C@H](N)C(=O)N[C@@H](CCC(N)=O)C(=O)O", "note": "[L-Alanyl-L-glutamin] (H-Ala-Gln-OH)", "values": [{"measurement": "Zellwachstum", "setting": "[2]", "result": "kein signifikanter Unterschied"}, {"measurement": "Wachstum im Vergleich zum glutaminfreien Medium", "setting": "[2]", "result": "deutlich erhöhtes Wachstum"}]}
{"smiles": "NC(=O)CC[C@H](N)C(=O)O", "note": "[L-Glutamin]", "values": [{"measurement": "Zellwachstum", "setting": "[2]", "result": "kein signifikanter Unterschied"}, {"measurement": "Wachstum im Vergleich zum glutaminfreien Medium", "setting": "[2]", "result": "deutlich erhöhtes Wachstum"}]}
{"smiles": "CC(=O)N[C@@H](C)C(=O)N[C@@H](CCC(N)=O)C(=O)O", "note": "[N-Acetyl-L-alanyl-L-glutamin] (Ac-Ala-Gln-OH)", "values": [{"measurement": "Zellwachstum", "setting": "[2]", "result": "kein signifikanter Unterschied"}, {"measurement": "Wachstum im Vergleich zum glutaminfreien Medium", "setting": "[2]", "result": "deutlich erhöhtes Wachstum"}, {"measurement": "von den Zellen verwertet", "setting": "[2]; utilisation by L1210 cells as glutamine source", "result": "sehr gut verwertet"}]}
{"smiles": "CC(=O)N[C@@H](C)C(=O)N[C@@H](Cc1ccc(O)cc1)C(=O)O", "note": "[N-Acetyl-L-alanyl-L-tyrosin] (Ac-Ala-Tyr-OH)", "values": [{"measurement": "spezifische Aktivität des Nierenhomogenisats", "setting": "[3]", "result": "420 nMol pro Minute und g Niere"}, {"measurement": "schneller als N-Acetyl-L-tyrosin gespalten", "setting": "[3]", "result": 10, "unit": "mal"}]}
{"smiles": "CC(=O)N[C@@H](CCC(N)=O)C(=O)O", "note": "[N-Acetyl-L-glutamin]", "values": [{"measurement": "von Zellen genutzt", "setting": "[4]", "result": "nicht oder nur sehr schlecht genutzt"}]}
{"smiles": "CCCC(=O)N[C@@H](C)C(=O)N[C@@H](Cc1ccc(O)cc1)C(=O)O", "note": "[N-Butyryl-L-alanyl-L-tyrosin] (Butyryl-Ala-Tyr-OH)", "values": [{"measurement": "spezifische Aktivität des Nierenhomogenisats", "setting": "[3]", "result": "660 nMol pro Minute und g Niere"}, {"measurement": "schneller als N-Acetyl-L-tyrosin gespalten", "setting": "[3]", "result": 15, "unit": "mal"}]}
